# According to ChEMBL document CHEMBL5113404, “Design, synthesis and biological evaluation of new parbendazole derivatives for the treatment of HNSCC” (Eur J Med Chem, 2022):
# Active and inactive are the calls of the source. No cut-off for these calls is given here.
# What was measured:
# [1] = Antiproliferative activity against human HN-6 cells assessed as cell growth inhibition incubated for 72 hrs by CCK-8 assay; assay type: functional, cell-based; settings: HN-6, 72 h
# CAL-27 = test: Antiproliferative activity against human CAL-27 cells assessed as cell growth inhibition incubated for 72 hrs by CCK-8 assay; assay type: functional, cell-based; settings: CAL-27, 72 h
# FaDu = test: Antiproliferative activity against human FaDu cells assessed as cell growth inhibition incubated for 72 hrs by CCK-8 assay; assay type: functional, cell-based; settings: read-out: IC50
# Tubulin (Homo sapiens) = Tubulin (Homo sapiens) (UniProt P68371+Q9H4B7+P0DPH7+P68366+Q13509+Q71U36+P04350+Q3ZCM7+P07437+P68363+Q9BQE3+Q6PEY2+Q13885+Q9BVA1+Q9BUF5); test: Inhibition of tubulin polymerization (unknown origin) at 20 micromol/L by fluorescence based analysis; assay type: protein-complex assay; settings: dose 20.0 µmol/L
# Tubulin = test: Inhibition of tubulin polymerization (unknown origin) by fluorescence based analysis; assay type: protein-complex assay, Homo sapiens
# HN-6 [2] = test: Induction of cell morphological changes in human HN-6 cells assessed as decrease in tubulin network around nucleus at 100 nmol/L incubated for 24 hrs by DAPI staining based confocal microscopy analysis; assay type: functional
# [3] = Antimigratory activity in human HN-6 cells assessed as inhibition of cell migration at 0.1 micromol/L measured after 24 hrs by scratch wound assay based fluorescence microscope analysis; assay type: functional; settings: HN-6, 24 h, dose 0.1 µmol/L
# HN-6 [4] = test: Inhibition of cell invasion in human HN-6 cells at 200 to 500 nmol/L incubated for 24 hrs by crystal violet staining based transwell assay; assay type: functional; settings: dose 200-500 nmol/L
# [5] = Induction of apoptosis in human HN-6 cells assessed as viable cells at 0.1 micromol/L incubated for 24 hrs by Annexin-V/FITC-PI staining based flow cytometry analysis (reference value: 97.26%); assay type: functional; settings: HN-6, 24 h, dose 0.1 µmol/L, read-out: Activity
# [6] = Induction of apoptosis in human HN-6 cells assessed as early apoptotic cells at 0.1 micromol/L incubated for 24 hrs by Annexin-V/FITC-PI staining based flow cytometry analysis (reference value: 2.04%); assay type: functional; settings: dose 0.1 µmol/L, at 0.1 µM
# [7] = Induction of apoptosis in human HN-6 cells assessed as late apoptotic cells at 0.1 micromol/L incubated for 24 hrs by Annexin-V/FITC-PI staining based flow cytometry analysis (reference value: 8.81%); assay type: functional; settings: dose 0.1 µmol/L, at 0.1 µM
# [8] = Induction of apoptosis in human HN-6 cells assessed as necrotic cells at 0.1 micromol/L incubated for 24 hrs by Annexin-V/FITC-PI staining based flow cytometry analysis (reference value: 2.08%); assay type: functional; settings: dose 0.1 µmol/L, at 0.1 µM
# [9] = Induction of apoptosis in human HN-6 cells assessed as viable cells at 1 micromol/L incubated for 24 hrs by Annexin-V/FITC-PI staining based flow cytometry analysis (reference value: 97.26%); assay type: functional; settings: HN-6, 24 h, dose 1 µmol/L, read-out: Activity
# [10] = Induction of apoptosis in human HN-6 cells assessed as early apoptotic cells at 1 micromol/L incubated for 24 hrs by Annexin-V/FITC-PI staining based flow cytometry analysis (reference value: 2.04%); assay type: functional; settings: dose 1 µmol/L, at 1 µM
# [11] = Induction of apoptosis in human HN-6 cells assessed as late apoptotic cells at 1 micromol/L incubated for 24 hrs by Annexin-V/FITC-PI staining based flow cytometry analysis (reference value: 8.81%); assay type: functional; settings: dose 1 µmol/L, at 1 µM
# [12] = Induction of apoptosis in human HN-6 cells assessed as necrotic cells at 1 micromol/L incubated for 24 hrs by Annexin-V/FITC-PI staining based flow cytometry analysis (reference value: 2.08%); assay type: functional; settings: dose 1 µmol/L, at 1 µM
# [13] = Induction of cell cycle arrest in human HN-6 cells assessed as accumulation of cells at G1 phase at 0.1 micromol/L incubated for 24 hrs by PI staining based flow cytometry analysi (reference value: 45.33%); assay type: functional; settings: dose 0.1 µmol/L, at 0.1 µM
# [14] = Induction of cell cycle arrest in human HN-6 cells assessed as accumulation of cells at S phase at 0.1 micromol/L incubated for 24 hrs by PI staining based flow cytometry analysi (reference value: 32.12%); assay type: functional; settings: dose 0.1 µmol/L, at 0.1 µM
# [15] = Induction of cell cycle arrest in human HN-6 cells assessed as accumulation of cells at S phase at 0.1 micromol/L incubated for 24 hrs by PI staining based flow cytometry analysi (reference value: 31.19%); assay type: functional; settings: dose 0.1 µmol/L, at 0.1 µM
# HN-6 [16] = test: Antitumor activity against human HN-6 cells xenografted in mouse assessed as reduction on tumor growth at 80 mg/kg,IG administered daily for 2 weeks; assay type: functional, organism-based
# [17] = Acute toxicity in mouse xenografted with human HN-6 cells assessed as body weight loss at 80 mg/kg,IG administered daily for 2 weeks; assay type: organism-based; settings: in vivo, po, 336 h
# Mus musculus [18] = test: Antitumor activity against human HN-6 cells xenografted in mouse serum assessed as reduction on TPS level at 80 mg/kg,IG administered daily for 2 weeks by ELISA; assay type: functional, organism-based
# Mus musculus [19] = test: Antitumor activity against human HN-6 cells xenografted in mouse serum assessed as reduction on CYFRA21-1 level at 80 mg/kg,IG administered daily for 2 weeks by ELISA; assay type: functional, organism-based
# Mus musculus [20] = test: Antitumor activity against human HN-6 cells xenografted in mouse serum assessed as reduction on SCCAg level at 80 mg/kg,IG administered daily for 2 weeks by ELISA; assay type: functional, organism-based
# [21] = Cytotoxicity against human HFF-1 clls assessed as reduction in cell viability incubated for 72 hrs by CCK-8 assay; assay type: toxicity, cell-based; settings: HFF-1 cells
# [22] = Acute toxicity in Kunming mouse assessed as adverse effect at 158 mg/kg,IG after 15 days of administration; assay type: organism-based; settings: in vivo, po, 360 h, time 15 day
# [23] = Acute toxicity in Kunming mouse assessed as adverse effect at 251 mg/kg,IG after 15 days of administration; assay type: organism-based; settings: in vivo, po, 360 h, time 15 day
# [24] = Acute toxicity in Kunming mouse assessed as change in body weight at 158 mg/kg,IG after 15 days of administration; assay type: organism-based; settings: in vivo, po, 360 h, time 15 day
# [25] = Acute toxicity in Kunming mouse assessed as change in body weight at 251 mg/kg,IG after 15 days of administration; assay type: organism-based; settings: in vivo, po, 360 h, time 15 day
# [26] = Acute toxicity in Kunming mouse assessed as death at 398 mg/kg,IG after 15 days of administration; assay type: organism-based; settings: in vivo, po, 360 h, time 15 day
# [27] = Acute toxicity in Kunming mouse assessed as lethargy at 631 mg/kg,IG after 6 hrs of administration; assay type: organism-based; settings: in vivo, po
# [28] = Acute toxicity in Kunming mouse assessed as lethargy at 1 g/Kg,IG after 2 hrs of administration; settings: in vivo, po, 1000 mg/kg
# [29] = Acute toxicity in Kunming mouse assessed as hypothermia at 631 mg/kg,IG after 6 hrs of administration; assay type: organism-based; settings: in vivo, po
# [30] = Acute toxicity in Kunming mouse assessed as hypothermia at 1 g/Kg,IG after 2 hrs of administration; settings: in vivo, po, 1000 mg/kg
# [31] = Acute toxicity in Kunming mouse assessed as weakness at 631 mg/kg,IG after 6 hrs of administration; assay type: organism-based; settings: in vivo, po
# [32] = Acute toxicity in Kunming mouse assessed as weakness at 1 g/Kg,IG after 2 hrs of administration; settings: in vivo, po, 1000 mg/kg
# [33] = Acute toxicity in IG dosed Kunming mouse assessed as lethal dose after 15 days of administration; assay type: organism-based; settings: in vivo, po, time 15 day
# [34] = Half life in rat at 100 mg/kg,IG measured upto 24 hrs by HPLC analysis; assay type: ADME, organism-based; settings: in vivo, po
# [35] = Tmax in rat at 100 mg/kg,IG measured upto 24 hrs by HPLC analysis; assay type: ADME, organism-based; settings: in vivo, po
# [36] = Cmax in rat at 100 mg/kg,IG measured upto 24 hrs by HPLC analysis; assay type: ADME, organism-based; set-up: dose 100 mg/kg, time < 24 hrs, route ig; settings: in vivo, po
# [37] = AUC (0 to t) in rat at 100 mg/kg,IG measured upto 24 hrs by HPLC analysis; assay type: ADME, organism-based; set-up: dose 100 mg/kg, time < 24 hrs, route ig; settings: in vivo, po
# [38] = Acute toxicity in Kunming mouse assessed as adverse effect at 1 g/Kg,IG after 15 days of administration; settings: in vivo, po, 1000 mg/kg, 360 h, time 15 day
# [39] = Acute toxicity in Kunming mouse assessed as death at 1 g/Kg,IG after 15 days of administration; settings: in vivo, po, 1000 mg/kg, 360 h, time 15 day
smiles,measurement,setting,value
CCCCc1ccc2nc(NC(=O)OC(C)C)[nH]c2c1,IC50,[1],34.9 nM
same,IC50,CAL-27,93.1 nM
same,IC50,FaDu,126 nM
same,inhibition,Tubulin (Homo sapiens),98.9%
same,IC50,Tubulin,4.04 µM
same,Activity,HN-6 [2],Active
same,inhibition at 0.1 µM,[3],6.27%
same,inhibition,HN-6 [4],Active
same,viability at 0.1 µM,[5],62.9%
same,Activity,[6],11.53%
same,Activity,[7],20.59%
same,Activity,[8],5.01%
same,viability at 1 µM,[9],52.6%
same,Activity,[10],16.44%
same,Activity,[11],24.75%
same,Activity,[12],6.23%
same,Activity,[13],14.26%
same,Activity,[14],16.16%
same,Activity,[15],68.08%
same,Activity,HN-6 [16],Active
same,Activity,[17],Non-Toxic
same,Activity,Mus musculus [18],Active
same,Activity,Mus musculus [19],Active
same,Activity,Mus musculus [20],Active
same,IC50 at 72 h,[21],> 20 µM
same,Activity,[22],Non-Toxic
same,Activity,[23],Non-Toxic
same,Activity,[24],Non-Toxic
same,Activity,[25],Non-Toxic
same,Activity,[26],Toxic
same,Activity,[27],Toxic
same,Activity,[28],Toxic
same,Activity,[29],Toxic
same,Activity,[30],Toxic
same,Activity,[31],Toxic
same,Activity,[32],Toxic
same,LD50 at 360 h,[33],341 mg/kg
same,half-life,[34],117 min
same,Tmax,[35],2 h
same,Cmax,[36],169 ng/mL
same,AUC(0-t) at 24 h,[37],542 ng·h/mL
C=CCOC(=O)Nc1nc2ccc(CCCC)cc2[nH]1,IC50,[1],46.9 nM
same,IC50,CAL-27,118 nM
same,IC50,FaDu,126 nM
same,inhibition,Tubulin (Homo sapiens),86.6%
same,IC50,Tubulin,4.41 µM
same,Activity,HN-6 [2],Active
same,inhibition at 0.1 µM,[3],8.1%
same,inhibition,HN-6 [4],Active
same,viability at 0.1 µM,[5],79.3%
same,Activity,[6],4.98%
same,Activity,[7],12.09%
same,Activity,[8],3.77%
same,viability at 1 µM,[9],60.8%
same,Activity,[10],12.28%
same,Activity,[11],21.43%
same,Activity,[12],5.48%
same,Activity,[13],14.51%
same,Activity,[14],19.14%
same,Activity,[15],64.65%
same,Activity,HN-6 [16],Active
same,Activity,[17],Non-Toxic
same,Activity,Mus musculus [18],Active
same,Activity,Mus musculus [19],Active
same,Activity,Mus musculus [20],Active
same,IC50 at 72 h,[21],> 20 µM
same,Activity,[38],Non-Toxic
same,Activity,[39],Non-Toxic
same,LD50 at 360 h,[33],> 1000 mg/kg
same,half-life,[34],131 min
same,Tmax,[35],4 h
same,Cmax,[36],83 ng/mL
same,AUC(0-t) at 24 h,[37],386 ng·h/mL
